Reference: publication PMC5091913, “Identification and Validation of Small-Gatekeeper Kinases as Drug Targets in Giardia lamblia” (PLoS Neglected Tropical Diseases, 2016)
Where two headings read alike, the source gives them in different places.

How the values were obtained:
Gl50803_16034 = biological target: T1, Gl50803_16034 (Giardia duodenalis, UniProt A8BHW1); assay: thermal shift assay; type: binding
T1 construct: gene GL50803_0016034
T1 sequence (A8BHW1 1-432): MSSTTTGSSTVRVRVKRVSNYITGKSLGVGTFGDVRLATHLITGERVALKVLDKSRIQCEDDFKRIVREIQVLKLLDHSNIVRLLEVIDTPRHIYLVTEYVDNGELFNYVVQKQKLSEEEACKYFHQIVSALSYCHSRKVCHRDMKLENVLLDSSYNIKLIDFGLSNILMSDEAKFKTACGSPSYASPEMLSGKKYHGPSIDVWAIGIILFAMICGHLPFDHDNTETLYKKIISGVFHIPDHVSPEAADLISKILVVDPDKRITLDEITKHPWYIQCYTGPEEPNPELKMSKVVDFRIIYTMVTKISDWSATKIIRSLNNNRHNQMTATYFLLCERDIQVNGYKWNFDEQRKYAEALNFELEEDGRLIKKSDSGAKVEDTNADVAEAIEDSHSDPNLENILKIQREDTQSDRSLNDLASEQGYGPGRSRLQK

Gl50803_8445 = biological target: T2, Gl50803_8445 (Giardia duodenalis, UniProt A8BXP9); assay: thermal shift assay; type: binding; conditions: also printed as 2°–3°
T2 construct: gene GL50803_008445
T2 sequence (A8BXP9 1-597): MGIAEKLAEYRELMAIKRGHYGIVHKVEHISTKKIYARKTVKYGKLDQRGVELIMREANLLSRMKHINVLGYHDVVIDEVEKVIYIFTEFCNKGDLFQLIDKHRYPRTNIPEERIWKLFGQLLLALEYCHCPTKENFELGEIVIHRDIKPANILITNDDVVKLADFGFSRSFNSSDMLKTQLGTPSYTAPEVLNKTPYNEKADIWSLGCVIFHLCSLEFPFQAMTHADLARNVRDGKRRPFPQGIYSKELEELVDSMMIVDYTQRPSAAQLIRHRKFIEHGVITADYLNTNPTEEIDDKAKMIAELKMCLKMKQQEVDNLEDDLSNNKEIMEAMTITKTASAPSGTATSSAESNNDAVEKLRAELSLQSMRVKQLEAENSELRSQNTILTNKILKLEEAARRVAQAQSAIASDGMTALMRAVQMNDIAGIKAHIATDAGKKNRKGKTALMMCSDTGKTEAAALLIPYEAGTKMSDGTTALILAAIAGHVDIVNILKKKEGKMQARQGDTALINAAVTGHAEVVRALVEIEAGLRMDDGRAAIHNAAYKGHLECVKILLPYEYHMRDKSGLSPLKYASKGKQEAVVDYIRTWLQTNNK

CCOc1ccc2cc(-c3nc(C(C)(C)C)n4ccnc(N)c34)ccc2c1 [compound 1213, 1213] was tested, and the ΔTm (Gl50803_16034; also printed as 2°–3°) was ~ 3 ° and the ΔTm (Gl50803_8445) was ~ 3 °.

Work on Nc1ncnc2c1c(-c1ccc(-c3ccccc3)cc1)nn2CC1CCNCC1 [compound 1244, 1244] yielded a ΔTm (Gl50803_16034) of 5.2 °.

In the case of Nc1ncnc2c1c(-c1ccc3nc(-c4ccccc4)oc3c1)nn2CC1CCNCC1 [compound 1264, 1264], the ΔTm (Gl50803_16034) is reported as 6.5 °.
